Experimental data as given in paper PMC5295395, “Inhibition of PlexA1-mediated brain tumor growth and tumor-associated angiogenesis using a transmembrane domain targeting peptide” (Oncotarget, 2016).

Columns and labels:
NCH644 cells = assay: sphere forming assay, NCH644 glioma stem cells; type: cell-based, human; conditions: NCH644, 10^−9 M
Method: (§1) Mounting evidence supports a crucial role of cancer stem cells in the initiation or relapse of tumors. This is particularly the case for gliomas. Thus, we decided to evaluate to what extent MTP-PlexA1 would affect glioma stem cell (GSC) growth. To this end, we used the NCH644 human cell line derived from a patient biopsy. […] We next performed a sphere forming assay in which cells were plated into 96-well plates at a low density (30 cells per well) to monitor production of clones from individual cells growing as non-adherent gliomaspheres. A minimum of 30 cells per well was required to allow sufficient sphere production (composed of at least 8 cells) in a time frame compatible with drug testing. Visual control of sphere formation on a daily basis confirmed that cellular edifices were arising from single cells and not due to cell clumping. […] To address whether this inhibitory effect is sufficient to impede tumor development in vivo we performed a xenograft experiment. […]
Cells were stained with an orange fluorescent dye (CMRA orange, Molecular Probe) to facilitate monitoring of individual cell and sphere counting. […] The sphere forming rate was calculated by dividing the number of sphere at day 4 per the real number of cells at day one in a given well.

[1] = test system: NCH644 glioma stem cell tumors in nude mice; assay: NCH644-mCherry xenograft in nude mice, cells pre-incubated with peptide; type: in vivo, human cells in mouse; conditions: 5 days
Method: as §1, with “experiment. NCH644 GCS were grafted in the flank of nude mice in a way to obtain two bilateral tumors derived from either control cells without treatment or from cells that had been pre-incubated with MTP-PlexA1. This was done using a fluorescent version of the NCH644 cell line (mCherry-NCH644) allowing live monitoring of tumor appearance (Figure 7E).” for “experiment.”
Experiments were performed according to the Guide for Care and Use of Laboratory Animals (E67-6-482-21) and the European Directive with approval of the regional ethical committee (Reference AL/55/62/02/13). […] For the experiment conducted with cancer stem cell line NCH644mCherry, we performed bilateral grafting of 10^6 cells on each flank of 20 nude mice without treatment or pre-incubated for 1 hour with MTP-PlexA1 at 10–7 M. After 5 days, the fluorescence emission of developing tumors was recorded using the NightOwl system (Berthold) using appropriate excitation and emission filters (580 nm/620 nm respectively).

Q: For “TLPAIVGIGGGGGLLLLVIVAVLIAYKRK [MTP-PlexA1, synthetic transmembrane peptide mimicking the TMD of PlexA1]”, which “decrease of sphere forming ability” value (NCH644 cells; 4 days, 30 cells per well, p = 0.0015, Student T test) is on record?
A: The value was 33.3%.

Q: And the “sphere formation relative to vehicle” value (NCH644 cells; vehicle = 100% +/− 9.7%)?
A: Its value is 66.7% +/− 5.2.

Q: And the “change of number of detectable tumors” value ([1]; NCH644 cells pre-incubated 1 h at 10–7 M, p = 0.0032, Mann Whitney)?
A: Its value is −71.4%.

Q: What about the “detectable tumors after grafting pre-incubated cells” value ([1]; NCH644 cells pre-incubated 1 h at 10–7 M, untreated control 14 tumors in 20 mice, p = 0.0032) of the same sequence?
A: The value was 4 out of 20.

Q: What about the “size of tumors that were able to grow” value ([1]; NCH644 cells pre-incubated, fluorescence, p = 0.4258) of the same sequence?
A: The value was “comparable to the one of the control group”.
